Source: publication PMC4674085, “Towards Prebiotic Catalytic Amyloids Using High Throughput Screening” (PLoS ONE, 2015)

Tests used:
[1] = Plate reader 4NPA hydrolysis kinetics of purified peptide amyloids at pH 7.3; assay type: biochemical; conditions: 4NPA hydrolysis, pH 7.3 HEPES with zinc(II), 20 μM purified peptide; for k cat/K M: 0.1-1.0 mM 4NPA, 1% CH3CN, A400, Michaelis-Menten fit, triplicate (duplicate for 8, 27, 34, 35); for k cat/K M / k cat: per monomer peptide; for K M / k cat: Michaelis-Menten fit
[2] = Circular dichroism (CD), secondary structure of aggregates; assay type: physicochemical; parameters: key: β+: has minimum near 217 nm; β++: has minimum near 217 nm and a maximum near 197 nm; −: signal too weak to interpret; ?: spectra not typical of any secondary structure
Description: The concept of creating an amyloid library out of a peptide library is only meaningful if the vast majority of the peptides actually form amyloids in at least one of the conditions tested. To establish the validity of our amyloid library we measured circular dichroism (CD), Fourier transform infrared spectroscopy (ATR-FTIR), as well as thioflavin T (ThT) fluorescence of peptides 1–33 at pH 7.3 (50 mM HEPES) and pH 4 (50 mM NaOAc) (see interactive Table A and associated data in S1 File). Based on the analysis of the CD and ATR-FTIR spectra (shown in the interactive Table A in S1 File) all the peptides formed β-structured aggregates in at least one condition. Most of the 33 peptides induced a significant increase in ThT fluorescence in at least one condition. […] The fibrils from a selection of the active peptides were aligned and analyzed by X-ray diffraction (Figures C and D in S1 File). In each case we observed the cross-β diffraction pattern typical of amyloid fibrils, although the degree of sample alignment varied. For two samples, 14 and 27, the difference in meridional and equatorial diffraction intensities was small but easily detected in a plot of the angular dependence of the intensity (Figure D in S1 File). The conclusion that can be drawn out of the multiple analysis techniques is that the 33 peptides that comprise the library are overwhelmingly prone to form fibril-like, β-structured aggregates. The cross-β diffraction of the tested aggregates would imply that they are more specifically all amyloidogenic.
CD measurements were carried out on a Jasco J815. Samples were prepared by centrifuging the amyloid library at 25,000 g for 10 min and then removing the supernatant. The pellets were resuspended at an approximate concentration of 100 μg/ml in 10 mM HEPES pH 7.3 (for mixtures from 50 mM HEPES) or 10 mM NaOAc pH 4 (for mixtures from 50 mM NaOAc), the suspensions were then treated with an ultrasonic probe for 5 s, upon which the solutions were placed in 1 mm cuvettes, diluted as necessary to maintain the detector voltage below 600 V and scanned from 260–190 nm at 50 nm/min, 1 nm band-pass, 2 second integration, averaged over 3 repetitions.
(§1) Table A and associated data: Biophysical characterization of library
(§2) Sequence ThT1 CD2 FTIR3 EM4 ThT CD FTIR EM X-ray5 […]
2. […]

[3] = ATR-FTIR, amide I peak of aggregates; assay type: physicochemical; parameters: key: indicates that no peak was observed within the typical range of stretching frequencies forβ-structure (between dashed lines at 1638 cm−1 and 1615 cm−1); conditions: air-dried pellet, crude peptide
Description: Samples were prepared as for the CD measurements, but instead of re-suspending the samples after centrifugation, 3 μl of H2O were added to the pellet so that it could be placed onto the diamond ATR cell of a Bruker Alpha-p ATR-FTIR spectrometer followed by air-drying before measuring the spectra. Blank subtraction was performed with an empty cell (air) and all measurements were performed without the pressure applicator.
as §1, §2
3. The peak position in amide I region is given in cm−1. […]

[4] = Thioflavin T fluorescence (ThT); assay type: physicochemical; conditions: crude peptide fibrillized at 160 μM, mixed 10:1 with 50 μM ThT, ex 440 nm em 480 nm
Description: The samples of the amyloid library (50 mM HEPES pH 7.3 or 50 mM NaOAc pH 4) were mixed 10:1 with 50 μM ThT and the increase in fluorescence was measured in a 384-well plate in a BMG Pherastar platereader (ex: 440 nm em: 480 nm). The background signal from the peptides without ThT was subtracted from the one with the ThT present in the sample. Due to the large dynamic range of the signals among the many samples, the measurements were made at two different gain settings to ensure that all of the signals fell within the measureable range.
as §1
Sequence ThT1 CD2 FTIR3 EM4 ThT CD FTIR EM X-ray5
1. Fold increase in ThT ﬂuorescence over background. […]

[5] = Transmission electron microscopy (TEM) of fibrils; assay type: physicochemical; parameters: key: +: ﬁbrils present; −: absent in EM micrographs; conditions: uranyl acetate stain
Description: The samples of the amyloid library (50 mM HEPES pH 7.3 or 50 mM NaOAc pH 4) were applied directly to glow-discharged carbon-coated grids, washed and then stained with uranyl acetate. Images were recorded on a Philips CM 12 electron microscope.
as §1, §2
4. (+) ﬁbrils present or (−) absent in EM micrographs. […]

[6] = pH 4.0, pellet (25,000 g, 10 min) resuspended ~100 μg/ml in 10 mM NaOAc pH 4, crude peptide
[7] = pH 7.3, pellet (25,000 g, 10 min) resuspended ~100 μg/ml in 10 mM HEPES pH 7.3, crude peptide

CD spectrum class [2, 6]	CD spectrum class [2, 7]	FTIR peak position in amide I region ([3]; pH 4.0 (50 mM NaOAc))	FTIR peak position in amide I region ([3]; pH 7.3 (50 mM HEPES))	ThT, fold increase in ThT fluorescence over background ([4]; pH 4.0, 50 mM NaOAc) [fold]	ThT, fold increase in ThT fluorescence over background ([4]; pH 7.3, 50 mM HEPES) [fold]	EM, fibrils in EM micrographs ([5]; pH 7.3, 50 mM HEPES)	EM, fibrils in EM micrographs ([5]; pH 4.0, 50 mM NaOAc)	Substance	k cat/K M [1] [M⁻¹ s⁻¹]	K M [1] [µM]	k cat [1]
−	β+	−	1625 cm⁻¹	1	129	+		Ac-YVAVHVHV-NH2 [Peptide 27, Ac-YVAVHVHV-CONH2]	4.26 ± 0.13	7200 ± 2100	3.05±0.80 10^-2s^-1
β++	−	1623 cm⁻¹	−	9	2		+	Ac-YVDVHVDV-NH2 [Peptide 25, Ac-YVDVHVDV-CONH2]			
	β+	−	1626 cm⁻¹	1	133	+	+	Ac-YVHVHVDV-NH2 [Peptide 21, Ac-YVHVHVDV-CONH2]	0.473 ± 0.046	1230 ± 320	0.059±0.010 10^-2s^-1
−	β+	−	1627 cm⁻¹	1	126	+	−	Ac-YVHVHVHV-NH2 [Peptide 8, Ac-YVHVHVHV-CONH2]	2.288 ± 0.077	2390 ± 320	0.547±0.056 10^-2s^-1
−	β++	−	1624 cm⁻¹	1	18	+		Ac-YVHVHVSV-NH2 [Peptide 11, Ac-YVHVHVSV-CONH2]	6.29 ± 0.52	870 ± 150	0.514±0.051 10^-2s^-1
−	β++	−	1624 cm⁻¹	1	82	+		Ac-YVSVHVHV-NH2 [Peptide 9, Ac-YVSVHVHV-CONH2]	1.461 ± 0.094	3710 ± 390	0.544±0.048 10^-2s^-1
